Test system: corneas of colored rabbit after excimer laser abrasion
Assay: accelerating activity for corneal wound healing after excimer laser treatment (histological observation of corneal slices)
Assay type: in vivo
Details: eye drop 100 μg/ml; for epithelium regeneration in the excimer-laser irradiated portion / inflammatory changes / thickness of the regenerated epithelium / vacuolation and fibroblast growth in the tunica propria / under the epithelium: single droplet twice a day for 5 to 7 days, optical microscope
Description: The following tests were performed with respect to the accelerating activity for the corneal wound healing after excimer laser treatment.
HP 1 and HP 2 were diluted with 1.2 ml of an oxyglutathion eye-perfusion/washing solution (trade name: BSS plus, manufactured by Santen Seiyaku) to obtain a diluted solution in a final concentration of 0.1 mg/ml. 1000 μg/ml of EGF was diluted with 1 ml of the oxyglutathion eye-perfusion/washing solution to obtain a diluted solution in a final concentration of 0.1 mg/ml. FN was diluted with 10 ml of the oxyglutathion eye-perfusion/washing solution to obtain a diluted solution in a final concentration of 0.1 mg/ml.
A colored rabbit was used as a test animal. The following surgical operation was applied to the rabbit.
An excimer laser was radiated to the corneas of both eyes of the rabbit under the condition of 180 mj/10 nsec (10 Hz) per pulse. By this radiation, the surface of central corneal parenchyma was cut off by abrasion in the form of a meniscus having a diameter of 4.5 mm (9.9 diopter) and a maximum center-depth of 70 μm. The excimer laser was radiated by using Omunimed (trade name) manufactured by Summit (U.S.A.).
Each of the aforementioned samples was administered to both eyes twice a day. A single droplet (about 50 μl) was administrated once in the morning and the afternoon for 5 to 7 days.
As Comparative examples, eye drops were prepared by dissolving the aforementioned samples in the oxyglutathion eye perfusion/washing solution in accordance with Table 2 and administered to both eyes of the rabbit.
After completion of droplet administration, right and left eyes were taken out from the rabbit and fixed with a glutathion aldehyde/formalin fixing solution. After the fixation, each cornea including a laser irradiated portion and a non-irradiated portion were excised out. Then, paraffin blocks were prepared in accordance with a customary method and thin-film slices of 5 μm thick were prepared by means of a microtome. The obtained corneal slices were stained with H.E. (hematoxylin-eosin) and then subjected to special staining such as PAS or trichrome.

Compound	overall corneal wound healing accelerating / corneal therapeutic effect (conclusion) (after excimer laser treatment)	epithelium regeneration in the excimer-laser irradiated portion	inflammatory changes	thickness of the regenerated epithelium	vacuolation and fibroblast growth in the tunica propria / under the epithelium
CC[C@H](C)[C@H](NC(=O)[C@H](Cc1ccc(O)cc1)NC(=O)[C@@H]1CCCN1C(=O)[C@H](CCCNC(=N)N)NC(=O)[C@H](CCCNC(=N)N)NC(C)=O)C(=O)N[C@@H](CC(C)C)C(=O)O [HP2, N-acetyl-Arg-Arg-Pro-Tyr-Ile-Leu-OH]	confirmed to have an corneal wound healing accelerating effect	observed in the entire irradiated portion	not observed	nonuniform	Vacuolation and fibroblast growth were observed
EGF: epithelial cell growth factor, manufactured by Bio Medical Technologies		observed in the entire irradiated portion	inflammatory changes were observed	nearly uniform	vacuolation and fibroblast growth were observed
fibronectin [FN]		observed in the entire irradiated portion	inflammatory changes were observed	nonuniform	relatively significant

Source: patent publication US5846940A, “Corneal therapeutic agent” (Okamoto; Sinseiro, priority 1994, dated 1998)
